Earlier results, collected in patent US6432453B1, “Dietary supplement containing glycerol ester of conjugated linoleic acid and rosemary extract containing carnosic acid” (Metagenics, Inc., priority 2000, dated 2002).
Read-outs that look alike come from different tables or passages of the source.

What was measured:
[1] = CLA-supplemented subjects, three months, no change of diet
[2] = free fatty acid form

half-life (oxidation) ([2]; 25° C.): 336 h | half-life (oxidation) ([2]; 75° C.): 7 h
Substance: conjugated linoleic acid [CLA]
body fat lost [1]: up to 20%
